Laboratory results as given in PMC8386742, “Discovery of N-aryl sulphonamide-quinazoline derivatives as anti-gastric cancer agents in vitro and in vivo via activating the Hippo signalling pathway” (Journal of Enzyme Inhibition and Medicinal Chemistry, 2021).

Key:
HCT-116 cells = experiment: MTT antiproliferative assay, HCT-116 cells; format: cell-based, human; conditions: exposure for 48 h
Description: (§1) The in vitro antiproliferative activities of new target compounds 6a–6g, 9a–9i, 10a–10j, 11a–11j, and 14a–14d were evaluated against four human cancer cell lines (MGC-803, PC-3, HCT-116, and MCF-7) using MTT assay and 5-FU as a positive drug. The following Tables 1–[4] depicted the results of in vitro antiproliferative activity.
(§2) Cell lines used were cultured in humidified incubator in a humidified atmosphere of 5% CO2 and 95% air. The RPMI-1640 medium was supplemented with 10% foetal bovine serum, penicillin (100 U/ml) and streptomycin (0.1 mg/ml).
(§3) Cell lines were seeded into 96-well plates and incubated for 24 h. Then cells were treated with different concentrations of compounds. And after another 48 h, MTT reagent (20 μL per well) was added to each well and then incubated at 37 °C for 4 h. After the suspension was discarded, formazan was then dissolved with DMSO. Absorbencies of formazan solution were measured at 490 nm. The IC50 values of tested compounds were calculated by SPSS version 17.0.

[1] = In vivo toxicity in MGC-803 bearing mice (body weight, blood biochemistry, H&E); parameters: species or system nude mice
Description: The bodyweight of mice was recorded during the treatment every 3 days. […] Blood samples and organs were collected after mice were executed.
A human gastric cancer subcutaneous transplantation tumour model was established with MGC-803 cells. After the tumour volume reaches 100 mm3 the MGC-803 bearing mice were randomised into 3 groups and intraperitoneal injection with normal saline or drugs continuously for 21 days. Tumour volume was measured every 3 days (Length × Width2/2). Mice were executed after treatment. 500 μL blood samples was collected each mouse, samples were then centrifuged at 2000 g for 10 min for biochemistry analysis. Tumour and organs tissues were harvested for H&E staining or immunochemistry detection. The experiments in the study were performed comply with the protocols approved by the Institutional Animal Care and Use Committee, Zhengzhou University.

MGC-803 cells = experiment: MTT antiproliferative assay, MGC-803 cells; format: cell-based, human; conditions: exposure for 48 h
Description: as §1, §2, §3

HGC-27 cells = experiment: MTT antiproliferative assay, HGC-27 gastric cancer cells; format: cell-based
Description: Furthermore, MGC-803 cells were more sensitive to the compounds than HCT-116, PC-3 cells MCF-7 cells. Moreover, we chose two other common gastric cancer cell lines (HGC-27 and SGC-7901) and another two normal cells GES-1 and HUEVC cells to examine for the inhibitory activity of compound 9i.
as §2, §3

[2] = system: MGC-803 and SGC-7901 cells; experiment: Cell cycle distribution in gastric cancer cells; format: cell-based; conditions: 24 h
Text: Because of the potent inhibitory activity on cell viability of compound 9i, we next explored the effects of compound 9i on cell proliferation in MGC-803 and SGC-7901 cells.
Figure 6. Gastric cancer cell proliferation inhibition inhibited by 9i. Density ratios relative to β-Actin were shown on the top of each Western blotting band. (A,B) Cell growth curves of in MGC-803 and SGC-7901 cells after the treatment with indicated concentrations of 9i for different hours; (C,D). Gastric cancer cell colony formation, cells were treated for 7 days; (E) Cell cycle distribution of MGC-803 and SGC-7901 after the treatment with indicated concentrations of 9i for 24 h; (F,G) Cell cycle related proteins in gastric cancer cells after the treatment with indicated concentrations of 9i for 24 h.

With `COc1ccc(S(=O)(=O)N(Cc2nc(C)c3ccccc3n2)c2cc(OC)c(OC)c(OC)c2)cc1` [Compound 9i, 4-Methoxy-N-((4-methylquinazolin-2-yl)methyl)-N-(3,4,5-trimethoxyphenyl) benzene-sulfonamide] the IC50 (HCT-116 cells; Homo sapiens, HCT-116, 48 h) was 708 nM, the IC50 (HCT-116 cells) was 700 ± 40 nM and the “blood biochemical indexes (ALT, AST, T-BIL, UA, CRE, BUN) versus vehicle control group” value ([1]; blood samples after execution) was “no significant difference”. For the same molecule, the toxicity in vivo ([1]; body weight, blood biochemistry, H&E staining of organs) was “did not show obvious toxicity in vivo”, the “bodyweight of mice versus vehicle control group” value ([1]; recorded every 3 days during 21 days treatment) was “did not show a significant difference” and the IC50 (MGC-803 cells; Homo sapiens, MGC-803, 48 h) was 360 ± 20 nM. The IC50 (MGC-803 cells) was 363 nM, the IC50 (HGC-27 cells; Homo sapiens, HGC-27, MTT, exposure for 48 h) was 458 nM and the “inhibition ratio against HGC-27 cells” value (HGC-27 cells; high dosage group, 48 h) was “above 50%”. The cell cycle arrest [2] was “remarkable and dose-dependent G2/M arrest”.
